According to DBAASP:
In brackets after ≈: the same amount, converted by molar mass.

Columns and labels:
Assay in all cases: ≥ marks a high value that may be exact or a test limit, other limits are often not marked, values filed in µg/mL are converted to µM
[1] = system: Escherichia coli K-12
[2] = system: Pseudomonas aeruginosa PAO1
[3] = system: Bacillus subtilis 168
[4] = system: Staphylococcus aureus USA 300
[5] = system: Staphylococcus aureus
[6] = system: Bacillus cereus
[7] = system: Leuconostoc lactis
[8] = system: Escherichia coli
[9] = system: Streptococcus uberis
[10] = system: Staphylococcus epidermidis
[11] = system: Micrococcus luteus
[12] = system: Listeria innocua
[13] = system: Pasteurella multocida
[14] = system: Enterobacter cloacae
[15] = system: Staphylococcus aureus ATCC 25923
[16] = system: Staphylococcus aureus ATCC 29213
[17] = system: Pseudomonas aeruginosa
[18] = system: Enterococcus faecalis
[19] = system: Escherichia coli ATCC 25922
[20] = system: Candida albicans ATCC 90028
[21] = system: Pseudomonas aeruginosa ATCC 27853
[22] = system: Acinetobacter baumannii
[23] = system: Staphylococcus aureus MR
[24] = system: Acinetobacter baumannii ATCC 19606
[25] = system: Salmonella enterica subsp. enterica serovar Typhimurium ATCC 14028
[26] = system: Escherichia coli UB1005
[27] = system: Salmonella enterica subsp. enterica serovar Pullorum C79-13
[28] = system: Staphylococcus epidermidis ATCC 12228
[29] = system: Enterococcus faecalis ATCC 29212
[30] = system: Bacillus subtilis CMCC 63501

| Compound | MIC [5] | MIC [6] | MIC [7] | MIC [8] | MIC [9] | MIC [10] | MIC [11] | MIC [12] | MIC [13] | other results |
| --- | --- | --- | --- | --- | --- | --- | --- | --- | --- | --- |
| CC[C@H](C)[C@H](NC(=O)[C@H](C)NC(=O)[C@H](CCC(N)=O)NC(=O)[C@@H](NC(=O)[C@@H](NC(=O)[C@H](CCCN=C(N)N)NC(=O)[C@H](CCCCN)NC(=O)[C@H](Cc1ccccc1)NC(=O)CN)[C@@H](C)CC)C(C)C)C(=O)N[C@@H](CCCCN)C(=O)N[C@@H](CC(=O)O)C(=O)N[C@@H](Cc1ccccc1)C(=O)N[C@@H](CC(C)C)C(=O)N[C@@H](CCCN=C(N)N)C(=O)N[C@@H](CC(N)=O)C(=O)N[C@@H](CC(C)C)C(=O)N[C@H](C(N)=O)C(C)C [GFKRIVQAIKDFLRNLV] |  |  |  |  |  |  |  |  |  | MIC [1]: ≥ 60 µM |
| CC[C@H](C)[C@H](NC(=O)[C@@H](NC(=O)[C@H](CCCCN)NC(=O)CNC(=O)[C@@H](NC(=O)[C@@H](NC(=O)[C@H](CO)NC(=O)[C@@H](NC(=O)[C@@H](NC(=O)[C@@H]1CCCN1C(=O)[C@@H](NC(=O)[C@@H](NC(=O)CN)[C@@H](C)CC)[C@@H](C)CC)[C@@H](C)CC)[C@@H](C)CC)[C@@H](C)CC)[C@@H](C)CC)[C@@H](C)CC)C(N)=O [GIIPIISIIGKII] |  |  |  |  |  |  |  |  |  | MIC [2]: > 30 µM; MIC [1]: ≥ 34 µM; MIC [3]: 30 µM (≈ 40.5 µg/mL); MIC [4]: ≥ 34 µM |
| CC[C@H](C)[C@H](NC(=O)[C@@H](NC(=O)[C@H](CO)NC(=O)[C@H](C)NC(=O)[C@@H](NC(=O)[C@H](CCCCN)NC(=O)[C@H](CCCCN)NC(=O)[C@@H](NC(=O)[C@@H](NC(=O)[C@H](CC(=O)O)NC(=O)[C@H](C)NC(=O)[C@H](CC(C)C)NC(=O)CN)C(C)C)[C@@H](C)CC)C(C)C)C(C)C)C(=O)NCC(=O)NCC(=O)N[C@@H](CC(C)C)C(N)=O [GLADVIKKVASVIGGL] | 64.9 µM (≈ 99.9 µg/mL) | ≥ 32.5 µM | ≥ 64.9 µM | > 64.9 µM | ≥ 64.9 µM | ≥ 64.9 µM | ≥ 32.5 µM | ≥ 64.9 µM | ≥ 64.9 µM |  |
| CC[C@H](C)[C@H](NC(=O)[C@@H](NC(=O)[C@H](C)NC(=O)[C@H](Cc1ccccc1)NC(=O)[C@H](CC(C)C)NC(=O)CN)C(C)C)C(=O)N[C@@H](CCCCN)C(=O)N[C@@H](CCCCN)C(=O)N[C@H](C(=O)N[C@@H](C)C(=O)N[C@@H](CCCCN)C(=O)N[C@H](C(=O)N[C@H](C(=O)N[C@@H](CCCCN)C(=O)N[C@@H](CCCCN)C(=O)N[C@@H](CC(C)C)C(N)=O)[C@@H](C)CC)C(C)C)C(C)C [GLFAVIKKVAKVIKKL] | 14.2 µM (≈ 25 µg/mL) | 14.2 µM (≈ 25 µg/mL) | 1.71 µM (≈ 3 µg/mL) | > 57 µM | 28.5 µM (≈ 50 µg/mL) | 6.84 µM (≈ 12 µg/mL) | 14.2 µM (≈ 25 µg/mL) | ≥ 57 µM | ≥ 57 µM |  |
| CC[C@H](C)[C@H](NC(=O)[C@@H](NC(=O)[C@H](CO)NC(=O)[C@H](C)NC(=O)[C@@H](NC(=O)[C@H](CCCCN)NC(=O)[C@H](C)NC(=O)[C@@H](NC(=O)[C@@H](NC(=O)[C@H](CC(=O)O)NC(=O)[C@H](Cc1ccccc1)NC(=O)[C@H](CC(C)C)NC(=O)CN)C(C)C)[C@@H](C)CC)C(C)C)C(C)C)C(=O)NCC(=O)NCC(=O)N[C@@H](CC(C)C)C(N)=O [GLFDVIAKVASVIGGL] | 64.1 µM (≈ 99.9 µg/mL) | ≥ 64.1 µM | 16 µM (≈ 25 µg/mL) | > 64.1 µM | ≥ 64.1 µM | ≥ 64.1 µM | ≥ 64.1 µM | ≥ 64.1 µM | ≥ 64.1 µM |  |
| CC[C@H](C)[C@H](NC(=O)[C@H](CCCCN)NC(=O)[C@H](CO)NC(=O)[C@H](C)NC(=O)[C@@H](NC(=O)[C@H](CCCCN)NC(=O)[C@H](CCCCN)NC(=O)[C@@H](NC(=O)[C@@H](NC(=O)[C@H](CC(=O)O)NC(=O)[C@H](Cc1ccccc1)NC(=O)[C@H](CC(C)C)NC(=O)CN)C(C)C)[C@@H](C)CC)C(C)C)C(=O)N[C@@H](CCCCN)C(=O)NCC(=O)N[C@@H](CC(C)C)C(N)=O [GLFDVIKKVASKIKGL] | > 58.3 µM | ≥ 58.3 µM | 3.5 µM (≈ 6 µg/mL) | > 58.3 µM | ≥ 58.3 µM | ≥ 58.3 µM | ≥ 58.3 µM | ≥ 58.3 µM | ≥ 58.3 µM |  |
| CC[C@H](C)[C@H](NC(=O)[C@@H](NC(=O)[C@@H]1CCCN1C(=O)[C@H](C)NC(=O)[C@@H](NC(=O)[C@H](Cc1cnc[nH]1)NC(=O)[C@@H]1CCCN1C(=O)[C@H](CC(C)C)NC(=O)[C@H](CC(C)C)NC(=O)[C@H](Cc1cnc[nH]1)NC(=O)[C@H](CCCCN)NC(=O)[C@H](C)NC(=O)[C@@H](NC(=O)[C@H](CO)NC(=O)CNC(=O)[C@H](CC(C)C)NC(=O)[C@@H](NC(=O)[C@H](CCCCN)NC(=O)[C@H](Cc1ccccc1)NC(=O)[C@H](CC(C)C)NC(=O)CN)C(C)C)C(C)C)C(C)C)[C@@H](C)CC)C(=O)N[C@@H](C)C(=O)N[C@@H](CCC(=O)O)C(=O)N[C@@H](CCCCN)C(=O)N[C@@H](CC(C)C)C(N)=O [GLFKVLGSVAKHLLPHVAPIIAEKL] |  | 18.9 µM (≈ 50 µg/mL) | 1.13 µM (≈ 3 µg/mL) | > 37.7 µM | 9.43 µM (≈ 25 µg/mL) | 4.53 µM (≈ 12 µg/mL) | 9.43 µM (≈ 25 µg/mL) | 4.53 µM (≈ 12 µg/mL) | 18.9 µM (≈ 50 µg/mL) | MIC [14]: ≥ 37.7 µM; MIC [15]: 4.53 µM (≈ 12 µg/mL); MIC [16]: 4.53 µM (≈ 12 µg/mL); MIC [17]: > 37.7 µM; MIC [18]: ≥ 37.7 µM |
| CC[C@H](C)[C@H](NC(=O)[C@H](CCCN=C(N)N)NC(=O)[C@H](CCCCN)NC(=O)[C@@H](NC(=O)[C@@H](NC(=O)[C@H](CCCN=C(N)N)NC(=O)[C@@H](N)CCCCN)[C@@H](C)CC)C(C)C)C(=O)N[C@@H](CCCCN)C(=O)N[C@@H](CC(=O)O)C(=O)N[C@@H](Cc1ccccc1)C(=O)N[C@@H](CC(C)C)C(=O)N[C@@H](CCCN=C(N)N)C(=O)O [KRIVKRIKDFLR] |  |  |  |  |  |  |  |  |  | MIC [19]: 1.25 µM (≈ 1.96 µg/mL); MIC [20]: 2.5 µM (≈ 3.93 µg/mL); MIC [21]: 2.5 µM (≈ 3.93 µg/mL); MIC [15]: ≥ 204 µM; MIC [16]: 2.5 µM (≈ 3.93 µg/mL); MIC [22]: ≥ 50.9 µM; MIC [23]: ≥ 204 µM; MIC [24]: ≥ 102 µM |
| CC[C@H](C)[C@H](NC(=O)[C@H](Cc1ccc(O)cc1)NC(=O)[C@H](CCCN=C(N)N)NC(=O)[C@H](CCCCN)NC(=O)[C@H](Cc1ccc(O)cc1)NC(=O)[C@@H](N)CC(C)C)C(=O)N[C@@H](CC(C)C)C(=O)N[C@@H](CCCN=C(N)N)C(=O)N[C@@H](CCCCN)C(=O)N[C@@H](Cc1ccccc1)C(=O)N[C@@H](CCCCN)C(=O)N[C@@H](Cc1ccccc1)C(=O)N[C@@H](CC(C)C)C(=O)N[C@@H](CCCCN)C(=O)N[C@@H](CCCCN)C(=O)N[C@@H](CCCCN)C(=O)N[C@@H](CC(C)C)C(=O)N[C@@H](CCCCN)C(=O)N[C@@H](CCCCN)C(=O)N[C@@H](CCCCN)C(N)=O [LYKRYILRKFKFLKKKLKKK] |  |  |  |  |  |  |  |  |  | MIC [23]: 24 µM (≈ 64 µg/mL) |
| CC(C)C[C@H](NC(=O)[C@@H](N)CCCN=C(N)N)C(=O)N[C@@H](C)C(=O)N[C@@H](CCCN=C(N)N)C(=O)N[C@@H](CCCN=C(N)N)C(=O)N[C@H](C(=O)N[C@H](C(=O)N[C@@H](CCCN=C(N)N)C(=O)N[C@@H](CCCN=C(N)N)C(=O)N[C@H](C(=O)N[C@@H](C)C(=O)N[C@@H](CCCN=C(N)N)C(N)=O)C(C)C)C(C)C)C(C)C [RLARRVVRRVAR] | > 66.3 µM |  |  |  |  |  |  |  |  | MIC [23]: ≥ 66.3 µM |
| C[C@H](NC(=O)[C@H](C)NC(=O)[C@H](CCCCN)NC(=O)[C@H](C)NC(=O)[C@H](C)NC(=O)[C@H](C)NC(=O)[C@H](CCCCN)NC(=O)[C@H](Cc1ccccc1)NC(=O)[C@@H](N)Cc1c[nH]c2ccccc12)C(=O)N[C@@H](C)C(=O)N[C@@H](CCCCN)C(=O)N[C@@H](Cc1ccccc1)C(=O)N[C@@H](Cc1c[nH]c2ccccc12)C(N)=O [WFKAAAKAAAKFW] |  |  |  |  |  |  |  |  |  | MIC [19]: 4 µM (≈ 5.98 µg/mL); MIC [25]: 32 µM (≈ 47.8 µg/mL); MIC [26]: 4 µM (≈ 5.98 µg/mL); MIC [27]: 8 µM (≈ 12 µg/mL); MIC [21]: 16 µM (≈ 23.9 µg/mL); MIC [28]: 16 µM (≈ 23.9 µg/mL); MIC [16]: 8 µM (≈ 12 µg/mL); MIC [29]: 32 µM (≈ 47.8 µg/mL); MIC [30]: 8 µM (≈ 12 µg/mL) |
